In patent US5484717A, “Antibiotic 31F508α1, 31F508α2, 31F508β1, 31F508β2” (American Cyanamid Company, priority 1995, dated 1996):

How the values were obtained:
[1] = test system: CNS (ID-3941); experiment: In vitro antibacterial activity, agar dilution MIC; type: cell-based; details: 18 h, read-out: Minimum Inhibitory Concentration, CNS (ID-3941), without sheep blood
Method: (§1) The in vitro antibacterial activity of 31F508α1 and α2 is determined against a spectrum of gram-positive and gram-negative bacteria by a standard agar dilution method. Mueller-Hinton agar with and without 5% sheep blood and two-fold decreasing concentrations of either 31F508α1 or α2 are poured into petri dishes. The agar surfaces are inoculated with 1 to 5×10^4 colony forming units of bacteria by means of the Steers replicating device. The lowest concentration of antibiotic that inhibits growth of a bacterial strain after 18 hours incubation is recorded as the minimal inhibitory concentration for that strain. The results are given in Table V with sheeps blood added to the agar.

[2] = test system: E. faecalis (ID-2131); experiment: In vitro antibacterial activity, agar dilution MIC; type: cell-based; details: Enterococcus faecalis, 18 h, without sheep blood, read-out: Minimum Inhibitory Concentration
Method: as §1

[3] = test system: E. coli (J2175); experiment: In vitro antibacterial activity, agar dilution MIC; type: cell-based; details: Escherichia coli, 18 h, without sheep blood, read-out: Minimum Inhibitory Concentration
Method: as §1

[4] = test system: Streptococcus pneumoniae (ID-4444); experiment: In vitro antibacterial activity, agar dilution MIC; type: cell-based; details: 18 h, without sheep blood, read-out: Minimum Inhibitory Concentration
Method: as §1

[5] = test system: E. faecium (12202); experiment: In vitro antibacterial activity, agar dilution MIC; type: cell-based; details: Enterococcus faecium, 18 h, without sheep blood, read-out: Minimum Inhibitory Concentration
Method: as §1

[6] = test system: S. lutea (ATCC 9341); experiment: In vitro antibacterial activity, agar dilution MIC; type: cell-based; details: Micrococcus luteus, ATCC9341, without sheep blood, 18 hours, read-out: Minimum Inhibitory Concentration
Method: as §1

[7] = test system: E. faecalis (12201); experiment: In vitro antibacterial activity, agar dilution MIC; type: cell-based; details: Enterococcus faecalis, 18 h, without sheep blood, read-out: Minimum Inhibitory Concentration
Method: as §1

[8] = test system: E. faecalis (ID-1829); experiment: In vitro antibacterial activity, agar dilution MIC; type: cell-based; details: Enterococcus faecalis, 18 h, without sheep blood, read-out: Minimum Inhibitory Concentration
Method: as §1

[9] = test system: Staphylococcus haemolyticus (ID-4061); experiment: In vitro antibacterial activity, agar dilution MIC; type: cell-based; details: 18 h, without sheep blood, read-out: Minimum Inhibitory Concentration
Method: as §1

[10] = test system: CNS (ID-3120); experiment: In vitro antibacterial activity, agar dilution MIC; type: cell-based; details: 18 h, read-out: Minimum Inhibitory Concentration, CNS (ID-3120), without sheep blood
Method: as §1

[11] = test system: Staphylococcus aureus (ID-3105); experiment: In vitro antibacterial activity, agar dilution MIC; type: cell-based; details: 18 h, without sheep blood, read-out: Minimum Inhibitory Concentration
Method: as §1

[12] = test system: Staphylococcus aureus (ID-2727); experiment: In vitro antibacterial activity, agar dilution MIC; type: cell-based; details: 18 h, without sheep blood, read-out: Minimum Inhibitory Concentration
Method: as §1

[13] = test system: P. aeruginosa (ATCC 27853); experiment: In vitro antibacterial activity, agar dilution MIC; type: cell-based; details: Pseudomonas aeruginosa, ATCC27853, without sheep blood, 18 hours, read-out: Minimum Inhibitory Concentration
Method: as §1

[14] = test system: Staphylococcus aureus (ID-4379); experiment: In vitro antibacterial activity, agar dilution MIC; type: cell-based; details: 18 h, without sheep blood, read-out: Minimum Inhibitory Concentration
Method: as §1

[15] = test system: E. Avium (ID-3953); experiment: In vitro antibacterial activity, agar dilution MIC; type: cell-based; details: Enterococcus avium, 18 h, without sheep blood, read-out: Minimum Inhibitory Concentration
Method: as §1

[16] = test system: CNS (4615); experiment: In vitro antibacterial activity, agar dilution MIC; type: cell-based; details: 18 h, read-out: Minimum Inhibitory Concentration, CNS (4615), without sheep blood
Method: as §1

[17] = test system: E. coli (J2445); experiment: In vitro antibacterial activity, agar dilution MIC; type: cell-based; details: Escherichia coli, 18 h, without sheep blood, read-out: Minimum Inhibitory Concentration
Method: as §1

[18] = test system: Staphylococcus aureus (ATCC 29213); experiment: In vitro antibacterial activity, agar dilution MIC; type: cell-based; details: ATCC29213, 18 h, Staphylococcus aureus (ATCC 29213-), without sheep blood, read-out: Minimum Inhibitory Concentration
Method: as §1

[19] = test system: E. coli (ATCC 25922); experiment: In vitro antibacterial activity, agar dilution MIC; type: cell-based; details: Escherichia coli, ATCC25922, without sheep blood, 18 hours, read-out: Minimum Inhibitory Concentration
Method: as §1

[20] = test system: E. faecium (ID-3301); experiment: In vitro antibacterial activity, agar dilution MIC; type: cell-based; details: Enterococcus faecium, 18 h, without sheep blood, read-out: Minimum Inhibitory Concentration
Method: as §1

[21] = test system: S. agalactiae (ID-4079); experiment: In vitro antibacterial activity, agar dilution MIC; type: cell-based; details: Streptococcus agalactiae, 18 h, read-out: Minimum Inhibitory Concentration, S. acralactiae (ID-4079), without sheep blood
Method: as §1

[22] = test system: E. faecalis (ID-4168); experiment: In vitro antibacterial activity, agar dilution MIC; type: cell-based; details: Enterococcus faecalis, 18 h, without sheep blood, read-out: Minimum Inhibitory Concentration
Method: as §1

[23] = test system: B. cereus (Bacto); experiment: In vitro antibacterial activity, agar dilution MIC; type: cell-based; details: Bacillus cereus, 18 h, without sheep blood, read-out: Minimum Inhibitory Concentration
Method: as §1

[24] = test system: Staphylococcus aureus (SMITH); experiment: In vitro antibacterial activity, agar dilution MIC; type: cell-based; details: 18 h, without sheep blood, read-out: Minimum Inhibitory Concentration
Method: as §1

[25] = test system: M. morganii (VGH 84-11); experiment: In vitro antibacterial activity, agar dilution MIC; type: cell-based; details: Morganella morganii, 18 h, without sheep blood, read-out: Minimum Inhibitory Concentration
Method: as §1

[26] = test system: Staphylococcus aureus (ID-2371); experiment: In vitro antibacterial activity, agar dilution MIC; type: cell-based; details: 18 h, without sheep blood, read-out: Minimum Inhibitory Concentration
Method: as §1

[27] = test system: E. faecium (ID-4133); experiment: In vitro antibacterial activity, agar dilution MIC; type: cell-based; details: Enterococcus faecium, without sheep blood, 18 hours, read-out: Minimum Inhibitory Concentration
Method: as §1

[28] = test system: Staphylococcus aureus (MEMC-89-4); experiment: In vitro antibacterial activity, agar dilution MIC; type: cell-based; details: 18 h, without sheep blood, read-out: Minimum Inhibitory Concentration
Method: as §1

[29] = test system: S. Pyogenes (ID-3187); experiment: In vitro antibacterial activity, agar dilution MIC; type: cell-based; details: Streptococcus pyogenes, 18 h, without sheep blood, read-out: Minimum Inhibitory Concentration
Method: as §1

[30] = test system: E. faecalis (ATCC 29212); experiment: In vitro antibacterial activity, agar dilution MIC; type: cell-based; details: Enterococcus faecalis, ATCC29212, 18 h, without sheep blood, read-out: Minimum Inhibitory Concentration
Method: as §1

[31] = Stability (conversion in neutral or basic solution; decomposition on drying); type: physicochemical; details: listed as α2
Method: The crude product is then separated into the α1, α2, β1 and β2 components and further purified by high performance liquid chromatography on a reverse-phase column equilibrated with 0.1% trifluoroacetic acid in water followed by slution with an acetonitrile gradient to 10%. Active fractions are pooled and freeze dried. Freeze dried fractions are dissolved in 0.01M hydrochloric acid, applied to a reverse phase column and eluted with an acetonitrile gradient to 10% resolves the two components α1 and α2. […] Beta is the quinone form of α1 or α2 having lost hydrogens from the oxygens connected to carbon10 and 13.
The freeze dried material is suspended in methanol and the insolubles removed by filtration. The soluble material is concentrated to dryness and the concentrate dissolved in 1% trifluoroacetic acid in water. Insolubles are removed by centrifugation. The soluble material is loaded onto a preparative reverse phase C18 column equilibrated with 0.1% trifluoroacetic acid in water. The column is eluted with an acetonitrile gradient to 10%. Active fractions containing the alpha component are pooled and freeze dried. Active fractions containing the beta component are adjusted to pH 8 with solid ammonium bicarbonate and extracted with methylene chloride. The beta component is stored in methylene chloride as drying leads to rapid decomposition. […]

[32] = test system: Escherichia coli#311; experiment: In vivo antibacterial activity in intraperitoneally infected mice; design: species or system female CD-1 mice; details: one half hour after infection
Method: The in vivo antibacterial activity of antibiotic 31F508α2 is established by infecting female CD-1 mice from Charles River Laboratories,weighing 20+-- 2 g each, intraperitoneally of sufficient bacterial cells suspended in either broth or 5% hog gastric mucin to kill non-treated controls within 24-48 hours. Two-fold serially diluted doses of the antibacterial agent contained in phosphate buffered saline (PBS, pH 7.4, 0.01M) are administered intravenously (0.2 ml) or contained in 0.2% aqueous agar, subcutaneously (0.5 ml) or orally (0.5 ml) one half hour after infection. In each test, five mice are treated per dose level.

COc1c(C)c(O)c2c(c1O)C1COC3C4CC5C(C(C2N2CCOC52)N13)N4C (stereo not drawn) [31F508α2]
1000 ng/mL: MIC [3]
120 ng/mL: MIC [20] | MIC [22]
2000 ng/mL: MIC [13]
15 ng/mL: MIC [5] | MIC [7]
4 ng/mL: MIC [11] | MIC [14] | MIC [17] | MIC [21] | MIC [26] | MIC [28]
2 ng/mL: MIC [1] | MIC [4] | MIC [6] | MIC [9] | MIC [10] | MIC [12] | MIC [16] | MIC [24] | MIC [27] | MIC [29]
8 ng/mL: MIC [18]
60 ng/mL: MIC [8] | MIC [30]
30 ng/mL: MIC [15]
converts to the beta form: Conversion to the beta (quinone) form [31]
500 ng/mL: MIC [19] | MIC [25]
0/5: Survival Ratios ([32]; SIV (intravenous), 0.25 Mg/Kg) | Survival Ratios ([32]; SIV (intravenous), 0.5 Mg/Kg) | Survival Ratios ([32]; SIV (intravenous), 1 Mg/Kg) | Survival Ratios ([32]; SIV (intravenous), 2 Mg/Kg) | Survival Ratios ([32]; SIV (intravenous), 4 Mg/Kg) | Survival Ratios ([32]; SOD (oral), 0.25 Mg/Kg) | Survival Ratios ([32]; SOD (oral), 0.5 Mg/Kg) | Survival Ratios ([32]; SOD (oral), 1 Mg/Kg) | Survival Ratios ([32]; SOD (oral), 2 Mg/Kg) | Survival Ratios ([32]; SOD (oral), 4 Mg/Kg) | Survival Ratios ([32]; SOD (oral), 8 Mg/Kg) | Survival Ratios ([32]; SSC (subcutaneous), 0.25 Mg/Kg) | Survival Ratios ([32]; SSC (subcutaneous), 0.5 Mg/Kg) | Survival Ratios ([32]; SSC (subcutaneous), 1 Mg/Kg) | Survival Ratios ([32]; SSC (subcutaneous), 2 Mg/Kg) | Survival Ratios ([32]; SSC (subcutaneous), 4 Mg/Kg) | Survival Ratios ([32]; SSC (subcutaneous), 8 Mg/Kg)
250 ng/mL: MIC [2] | MIC [23]
